Measured values as given in patent publication US8710045B2, “Agents for preventing and treating disorders involving modulation of the ryanodine receptors” (The Trustees of Columbia University in the City of New York, priority 2004, dated 2014).
Where “and” joins values, the source holds several entries; their conditions need not be identical. Equal entries are not always repeated.

Key:
RyR2 = settings: wildtype mice, 0.5 mg/kg/h for 28 days post-myocardial infarction
Description: Equivalent amounts of RyR2 are immunoprecipitated with an antibody against RyR2 (top blot).

skeletal muscle = settings: five weeks after left coronary artery ligation; cited from earlier work
hERG = hERG (Homo sapiens, UniProt Q12809); assay: hERG current, PatchXpress 7000A automatic parallel patch clamp in hERG-transfected HEK 293 cells (Example 6); settings: human, HEK 293 cells stably transfected with hERG cDNA
Procedure: (§1) HEK293 cells were transfected with a plasmid containing the hERG cDNA and a neomycin resistance gene. Stable transfectants were selected by culturing the cells in the presence of G418. The selection pressure was maintained by continued culture in the presence of G418. […] Cells for use in electrophysiology were cultured in 35 mm dishes.
(§2) Onset and steady state block of hERG current was measured using a pulse pattern with fixed amplitudes (conditioning prepulse: +20 mV for 2 seconds; test pulse: −50 mV for 2 seconds) repeated at 10 second intervals, from a holding potential of −80 mV. Peak tail current was measured during the 2 second step to −50 mV. A steady state was maintained for at least 30 seconds before applying the test compound or the positive control. Peak tail current was monitored until a new steady state was achieved. Test compound concentrations were applied cumulatively in ascending order without washout between applications.
(§3) Data acquisition and analysis was performed using the suite of pCLAMP (Vre. 8.2) programs (Axon Instruments, Union City, Calif.). Steady state was defined by the limiting constant rate of change with time (linear time dependence). The steady state before and after application of the test or control compounds was used to calculate the percentage of current inhibited at each concentration. […] Nonlinear squares fits were solved with the Solver add-in for Excel 2000 (Microsoft, Redmond, Wash.).
(§4) Multiple compounds of the invention were tested for their effects on hERG currents. The compounds tested were: ARM036-Na, ARM047, ARM048, ARM050, ARM057, ARM064, ARM074, ARM075, ARM076, ARM077, ARM101, ARM102, ARM103, ARM104, ARM106, ARM107 and ARM26. […] Electrophysiological recordings were made using the PatchXpress 7000 A (Molecular Devices) automatic parallel patch clamp system. […] The duration of exposure to each test concentration was 5 minutes.

hERG current = hERG current (Homo sapiens, UniProt Q12809); assay: as above; settings: for Individual Data (% Inhibition): single cell; for hERG current inhibition at the highest concentration tested: highest concentration tested (10 μM)
Procedure: as §1, §2, §3, §4

PKA-phosphorylated RyR2 = biological target: T1, PKA-phosphorylated RyR2 (Homo sapiens, UniProt Q92736); assay: FKBP12.6 rebinding assay: FKBP12.6 binding to PKA-phosphorylated RyR2 in cardiac SR; settings: compound 0.5-1000 nM; Michaelis-Menten curve fitting
T1 construct: from tissue
T1 sequence (Q92736 whole entry): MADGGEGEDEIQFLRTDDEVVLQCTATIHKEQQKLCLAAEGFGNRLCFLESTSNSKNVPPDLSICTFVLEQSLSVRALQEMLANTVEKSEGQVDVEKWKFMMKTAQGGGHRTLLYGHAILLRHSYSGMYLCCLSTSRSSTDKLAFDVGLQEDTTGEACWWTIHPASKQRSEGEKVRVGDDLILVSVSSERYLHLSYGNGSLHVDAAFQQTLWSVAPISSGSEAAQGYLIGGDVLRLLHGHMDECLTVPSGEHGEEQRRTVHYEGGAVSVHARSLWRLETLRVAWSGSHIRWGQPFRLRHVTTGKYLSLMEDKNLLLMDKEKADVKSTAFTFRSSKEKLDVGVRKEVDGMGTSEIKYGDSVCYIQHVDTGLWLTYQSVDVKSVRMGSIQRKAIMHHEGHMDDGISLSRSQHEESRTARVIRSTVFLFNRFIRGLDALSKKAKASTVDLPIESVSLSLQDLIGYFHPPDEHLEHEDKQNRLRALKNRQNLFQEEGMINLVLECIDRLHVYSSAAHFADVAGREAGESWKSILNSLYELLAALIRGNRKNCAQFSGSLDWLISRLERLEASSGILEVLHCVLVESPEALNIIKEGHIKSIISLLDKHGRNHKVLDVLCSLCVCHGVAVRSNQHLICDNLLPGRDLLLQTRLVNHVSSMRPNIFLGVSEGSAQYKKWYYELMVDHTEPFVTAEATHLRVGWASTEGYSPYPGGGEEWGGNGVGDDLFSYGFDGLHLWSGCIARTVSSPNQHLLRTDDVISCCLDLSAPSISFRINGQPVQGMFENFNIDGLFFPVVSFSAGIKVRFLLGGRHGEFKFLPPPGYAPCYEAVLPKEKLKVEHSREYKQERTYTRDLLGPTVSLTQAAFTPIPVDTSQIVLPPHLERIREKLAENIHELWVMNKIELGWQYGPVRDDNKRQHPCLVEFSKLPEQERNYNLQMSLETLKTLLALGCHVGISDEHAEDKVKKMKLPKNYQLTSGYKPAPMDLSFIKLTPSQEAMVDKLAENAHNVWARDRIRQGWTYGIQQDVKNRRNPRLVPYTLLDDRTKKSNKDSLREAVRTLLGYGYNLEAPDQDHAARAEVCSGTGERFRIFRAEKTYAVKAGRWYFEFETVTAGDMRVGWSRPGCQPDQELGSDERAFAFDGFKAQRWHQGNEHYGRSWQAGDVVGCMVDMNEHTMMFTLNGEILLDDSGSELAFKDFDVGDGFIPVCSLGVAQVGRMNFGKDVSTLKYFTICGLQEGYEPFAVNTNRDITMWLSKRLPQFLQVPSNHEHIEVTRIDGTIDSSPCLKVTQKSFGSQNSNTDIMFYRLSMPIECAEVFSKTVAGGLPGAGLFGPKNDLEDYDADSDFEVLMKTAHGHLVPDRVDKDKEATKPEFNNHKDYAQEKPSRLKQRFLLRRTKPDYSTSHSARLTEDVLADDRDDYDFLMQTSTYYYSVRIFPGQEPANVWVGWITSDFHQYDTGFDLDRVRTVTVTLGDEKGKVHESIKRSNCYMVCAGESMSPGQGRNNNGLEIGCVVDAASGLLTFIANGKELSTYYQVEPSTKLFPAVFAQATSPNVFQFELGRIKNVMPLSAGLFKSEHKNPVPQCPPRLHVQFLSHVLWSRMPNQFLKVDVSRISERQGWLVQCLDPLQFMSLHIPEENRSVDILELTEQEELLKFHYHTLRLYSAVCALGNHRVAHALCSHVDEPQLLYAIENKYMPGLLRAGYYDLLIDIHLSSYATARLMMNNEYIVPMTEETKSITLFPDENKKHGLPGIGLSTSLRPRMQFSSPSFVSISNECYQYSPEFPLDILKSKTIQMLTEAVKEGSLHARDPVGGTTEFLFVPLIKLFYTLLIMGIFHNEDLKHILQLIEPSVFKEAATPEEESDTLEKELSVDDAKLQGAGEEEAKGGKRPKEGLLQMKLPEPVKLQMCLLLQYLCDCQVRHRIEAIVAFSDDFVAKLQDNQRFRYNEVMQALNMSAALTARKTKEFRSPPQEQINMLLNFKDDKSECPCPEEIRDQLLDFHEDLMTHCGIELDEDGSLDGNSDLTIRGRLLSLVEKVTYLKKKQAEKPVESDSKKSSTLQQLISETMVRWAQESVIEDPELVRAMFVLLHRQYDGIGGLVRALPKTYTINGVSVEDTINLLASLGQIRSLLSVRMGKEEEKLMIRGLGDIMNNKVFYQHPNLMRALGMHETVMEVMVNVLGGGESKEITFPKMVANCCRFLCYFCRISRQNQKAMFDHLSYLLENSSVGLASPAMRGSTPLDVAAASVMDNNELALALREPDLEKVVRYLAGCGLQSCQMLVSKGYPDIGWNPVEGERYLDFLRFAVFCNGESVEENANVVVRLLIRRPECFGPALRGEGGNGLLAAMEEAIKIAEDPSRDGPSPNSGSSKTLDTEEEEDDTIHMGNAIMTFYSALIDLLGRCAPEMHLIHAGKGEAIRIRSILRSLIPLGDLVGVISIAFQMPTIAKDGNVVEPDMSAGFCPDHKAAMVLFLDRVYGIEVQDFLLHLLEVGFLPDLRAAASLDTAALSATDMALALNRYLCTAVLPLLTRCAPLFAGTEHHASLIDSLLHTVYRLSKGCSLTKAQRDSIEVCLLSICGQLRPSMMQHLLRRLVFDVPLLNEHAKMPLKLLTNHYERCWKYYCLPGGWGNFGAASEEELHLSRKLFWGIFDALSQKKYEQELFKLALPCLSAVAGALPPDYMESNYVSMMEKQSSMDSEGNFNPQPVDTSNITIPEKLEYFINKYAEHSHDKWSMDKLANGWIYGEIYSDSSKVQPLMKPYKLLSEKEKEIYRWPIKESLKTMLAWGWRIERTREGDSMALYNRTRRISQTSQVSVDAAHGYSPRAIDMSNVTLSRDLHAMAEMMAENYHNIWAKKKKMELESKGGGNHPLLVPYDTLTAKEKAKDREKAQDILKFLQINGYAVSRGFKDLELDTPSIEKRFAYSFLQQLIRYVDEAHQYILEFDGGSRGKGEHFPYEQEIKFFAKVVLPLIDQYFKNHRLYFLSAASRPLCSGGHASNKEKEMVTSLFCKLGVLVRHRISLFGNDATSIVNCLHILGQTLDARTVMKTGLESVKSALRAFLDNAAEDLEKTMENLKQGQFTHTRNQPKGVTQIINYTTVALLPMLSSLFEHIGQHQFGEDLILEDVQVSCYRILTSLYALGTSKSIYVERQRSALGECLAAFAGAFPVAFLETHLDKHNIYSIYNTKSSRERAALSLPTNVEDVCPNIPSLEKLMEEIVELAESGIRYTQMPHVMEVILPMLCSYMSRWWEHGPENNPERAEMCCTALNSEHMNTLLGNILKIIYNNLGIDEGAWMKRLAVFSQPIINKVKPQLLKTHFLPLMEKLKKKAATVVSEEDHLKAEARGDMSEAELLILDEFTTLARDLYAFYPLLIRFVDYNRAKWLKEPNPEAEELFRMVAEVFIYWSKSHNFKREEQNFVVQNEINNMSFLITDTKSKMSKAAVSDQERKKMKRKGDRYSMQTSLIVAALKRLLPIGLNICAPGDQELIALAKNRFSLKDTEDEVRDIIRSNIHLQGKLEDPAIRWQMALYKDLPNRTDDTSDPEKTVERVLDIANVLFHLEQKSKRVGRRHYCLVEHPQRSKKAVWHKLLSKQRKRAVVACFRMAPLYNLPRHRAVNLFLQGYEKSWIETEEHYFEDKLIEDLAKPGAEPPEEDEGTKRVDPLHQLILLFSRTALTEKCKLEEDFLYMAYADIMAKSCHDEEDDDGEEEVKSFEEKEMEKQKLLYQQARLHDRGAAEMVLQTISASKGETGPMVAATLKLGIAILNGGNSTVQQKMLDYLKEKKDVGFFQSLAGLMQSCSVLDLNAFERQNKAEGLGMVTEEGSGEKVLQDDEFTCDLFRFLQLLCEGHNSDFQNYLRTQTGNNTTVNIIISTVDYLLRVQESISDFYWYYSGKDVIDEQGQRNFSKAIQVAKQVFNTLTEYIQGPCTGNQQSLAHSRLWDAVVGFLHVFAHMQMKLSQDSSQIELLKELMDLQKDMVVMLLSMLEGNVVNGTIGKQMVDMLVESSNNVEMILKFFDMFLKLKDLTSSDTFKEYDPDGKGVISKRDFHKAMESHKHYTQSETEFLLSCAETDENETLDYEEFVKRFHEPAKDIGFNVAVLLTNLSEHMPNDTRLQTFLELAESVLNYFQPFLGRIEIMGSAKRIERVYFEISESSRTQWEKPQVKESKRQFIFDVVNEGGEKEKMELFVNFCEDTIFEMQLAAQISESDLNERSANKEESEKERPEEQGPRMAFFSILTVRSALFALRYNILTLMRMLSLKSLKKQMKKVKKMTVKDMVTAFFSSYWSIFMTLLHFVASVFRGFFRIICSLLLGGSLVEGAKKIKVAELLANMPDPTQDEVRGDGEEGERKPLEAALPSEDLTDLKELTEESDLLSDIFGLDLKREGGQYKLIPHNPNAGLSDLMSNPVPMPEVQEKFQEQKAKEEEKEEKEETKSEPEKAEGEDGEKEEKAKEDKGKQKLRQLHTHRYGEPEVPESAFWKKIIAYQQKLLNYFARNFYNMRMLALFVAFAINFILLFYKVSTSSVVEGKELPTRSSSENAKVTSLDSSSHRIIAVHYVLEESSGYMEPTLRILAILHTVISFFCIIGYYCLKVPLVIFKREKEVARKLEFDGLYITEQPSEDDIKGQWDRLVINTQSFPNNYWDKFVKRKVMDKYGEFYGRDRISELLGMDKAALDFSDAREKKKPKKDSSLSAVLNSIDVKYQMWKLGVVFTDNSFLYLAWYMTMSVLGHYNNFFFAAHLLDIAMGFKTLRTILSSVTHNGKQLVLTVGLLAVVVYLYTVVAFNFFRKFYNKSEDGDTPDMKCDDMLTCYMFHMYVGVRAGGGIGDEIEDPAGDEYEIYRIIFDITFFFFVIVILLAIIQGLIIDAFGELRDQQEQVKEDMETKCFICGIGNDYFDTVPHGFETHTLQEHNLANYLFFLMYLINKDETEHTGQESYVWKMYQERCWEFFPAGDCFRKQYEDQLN
T1 sequence (P68106 whole entry partner): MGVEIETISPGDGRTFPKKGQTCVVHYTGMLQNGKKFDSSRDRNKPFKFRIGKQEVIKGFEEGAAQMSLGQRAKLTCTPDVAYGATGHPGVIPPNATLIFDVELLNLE
Procedure: Samples are centrifuged at 95,000 g for 10 min and the pellets are washed three times in 0.2 ml imidazole buffer. The final pellets are pooled and resuspended in imidazole buffer (final concentration≈10 μg/μl). […] Samples then are centrifuged at 100,000 g for 10 minutes and pellets washed 3 times with imidizol buffer. […] Immunoblots are developed using an anti-FKBP antibody (1:3,000 dilution). […] The intracellular solution contains (in mM): CsCl, 60; CaCl2, 1; EGTA, 11; MgCl2, 1; K2ATP, 5; HEPES, 10; aspartic acid, 50; pH 7.4 (CsOH). Under these conditions, it is expected that the measured current was carried by Ba^2+ primarily through L-type calcium channels which is referred to as ICa,L. Drugs are applied by a local solution changer and reach the cell membrane within 1 s.
The FKBP12.6 rebinding assay described above is used to determine the amount of FKBP12.6 binding to PKA-phosphorylated RyR2 at various concentrations (0.5-1000 nM) of the compounds shown. EC50 values are calculated using Michaelis-Menten curve fitting.
The EC50 values are calculated using Michaelis-Menten curve fitting.

[1] = Individual Data (% Inhibition), single cell
[2] = Individual Data (% Inhibition), 10 μM, single cell
[3] = hERG current inhibition at the highest concentration tested, highest concentration tested (10 μM)

Row | EC50 (PKA-phosphorylated RyR2) [nM] | Structure (SMILES) | inhibition at 5 min, 0.01 µM (hERG; [1]) [%] | inhibition at 5 min, 0.1 µM (hERG; [1]) [%] | inhibition at 5 min, 1 µM (hERG; [1]) [%] | inhibition at 5 min, 10 µM (hERG; [2]) [%] | inhibition at 5 min, 0.01 µM (hERG; Mean % hERG Inhibition) [%] | inhibition at 5 min, 0.1 µM (hERG; Mean % hERG Inhibition) [%] | inhibition at 5 min, 1 µM (hERG; Mean % hERG Inhibition) [%] | inhibition at 5 min, 10 µM (hERG; Mean % hERG Inhibition, 10 μM) [%] | inhibition at 5 min, 10 µM (hERG; [3]) [%] | Mean % hERG Inhibition (hERG current; 0.01 μM) [%] | Mean % hERG Inhibition (hERG current; 0.1 μM) [%] | Mean % hERG Inhibition (hERG current; 1 μM) [%] | Mean % hERG Inhibition (hERG current; 10 μM) [%] | hERG current inhibition at the highest concentration tested (hERG current) | further results
1 | – | COc1ccc2c(c1)CN(C(=O)CCN1CCC(Cc3ccccc3)CC1)CCS2.Cl [JTV-519, 4-[3-(4-benzylpiperidin-1-yl)propionyl]-7-methoxy-2,3,4,5-tetrahydro-1,4-benzothiazepine monohydrochloride] | – | – | – | – | – | – | – | – | – | – | – | – | – | – | resting heart rate or other ECG parameters (FKBP12.6+/− mice; 0.5 mg/kg/h for 7 days, osmotic mini-pump): no effect; cardiac arrhythmias and sudden cardiac death (FKBP12.6+/− mice; plasma level 1 μM): prevent; PKA phosphorylation of RyR2 at Ser-2808 (RyR2): reduces; skeletal muscle function (skeletal muscle): able to improve skeletal muscle function
2 | 40 | COc1ccc2c(c1)CNCCS2 [S26] | 9.1 | 12.3 | 11.3 | 56.4 | 8.9 | 10.5 | 12.3 | 58.3 | – | – | – | – | – | – | IC50 (hERG current): 7030 nM; Individual Data (% Inhibition) (hERG current; 0.01 μM): 8.7%; Individual Data (% Inhibition) (hERG current; 0.1 μM): 8.6%; Individual Data (% Inhibition) (hERG current; 1 μM): 13.2%; Individual Data (% Inhibition) (hERG current; 10 μM): 60.1%
3 | 100 | CCN(CC)C(=O)N1CCSc2ccc(OC)cc2C1 [S48] | – | 4.2 | 4.7 | 15.2 | 1.3 | 3.6 | 4.1 | 14 | < 50 | – | – | – | – | – | Individual Data (% Inhibition) (hERG current; 0.01 μM, listed as ARM048, 0.01 µM): 0.5% and 2.0%; Individual Data (% Inhibition) (hERG current; 0.1 μM, listed as ARM048, 0.1 µM): 2.9%; Individual Data (% Inhibition) (hERG current; 1 μM, listed as ARM048, 1 µM): 3.5%; Individual Data (% Inhibition) (hERG current; 10 μM, listed as ARM048, 10 µM): 12.8%
4 | 44 | COc1ccc2c(c1)CN(C(=O)N1CCNCC1)CCS2 [S64] | – | 9.9 | – | 32 | 0.2 | 9 | 9.6 | 30.3 | < 50 | – | – | – | – | – | Individual Data (% Inhibition) (hERG current; 0.01 μM, listed as ARM064, 0.01 µM): −0.6% and 1.0%; Individual Data (% Inhibition) (hERG current; 0.1 μM, listed as ARM064, 0.1 µM): 8.1%; Individual Data (% Inhibition) (hERG current; 1 μM, listed as ARM064, 1 µM): 13.2% and 6.0%; Individual Data (% Inhibition) (hERG current; 10 μM, listed as ARM064, 10 µM): 28.5%
5 | 150 | CCN(CC)C(=O)N1CCSc2ccccc2C1 [S75] | 1.7 | 2.6 | 3.7 | 14.7 | 1.4 | 3.7 | 3.9 | 16 | < 50 | – | – | – | – | – | Individual Data (% Inhibition) (hERG current; 0.01 μM, listed as ARM075, 0.01 µM): 1.1%; Individual Data (% Inhibition) (hERG current; 0.1 μM, listed as ARM075, 0.1 µM): 4.8%; Individual Data (% Inhibition) (hERG current; 1 μM, listed as ARM075, 1 µM): 4.1%; Individual Data (% Inhibition) (hERG current; 10 μM, listed as ARM075, 10 µM): 17.2%
6 | 25 | COC(=O)C(=O)N1CCSc2ccccc2C1 [S76] | – | – | – | 10 | 0.4 | 2.5 | 3.1 | 11.2 | < 50 | – | – | – | – | – | Individual Data (% Inhibition) (hERG current; 0.01 μM, listed as ARM076, 0.01 µM): 0.0% and 0.7%; Individual Data (% Inhibition) (hERG current; 0.1 μM, listed as ARM076, 0.1 µM): 4.0% and 0.9%; Individual Data (% Inhibition) (hERG current; 1 μM, listed as ARM076, 1 µM): 2.0% and 4.1%; Individual Data (% Inhibition) (hERG current; 10 μM, listed as ARM076, 10 µM): 12.3%
7 | 105 | O=C(N1CCN(Cc2ccc3c(c2)OCO3)CC1)N1CCSc2ccccc2C1 [S101] | 4.3 | 5.1 | 18.9 | 66.7 | 3.4 | 6.4 | 23 | 65.8 | < 50 | – | – | – | – | – | IC50 (hERG current): 4410 nM; Individual Data (% Inhibition) (hERG current; 0.01 μM, listed as ARM101, 0.01 µM): 2.5%; Individual Data (% Inhibition) (hERG current; 0.1 μM, listed as ARM101, 0.1 µM): 7.6%; Individual Data (% Inhibition) (hERG current; 1 μM, listed as ARM101, 1 µM): 27.0%; Individual Data (% Inhibition) (hERG current; 10 μM, listed as ARM101, 10 µM): 64.9%

Row | Structure (SMILES) | EC50 (PKA-phosphorylated RyR2) [nM] | inhibition at 5 min, 0.01 µM (hERG; [1]) [%] | inhibition at 5 min, 0.1 µM (hERG; [1]) [%] | inhibition at 5 min, 1 µM (hERG; [1]) [%] | inhibition at 5 min, 10 µM (hERG; [2]) [%] | inhibition at 5 min, 0.01 µM (hERG; Mean % hERG Inhibition) [%] | inhibition at 5 min, 0.1 µM (hERG; Mean % hERG Inhibition) [%] | inhibition at 5 min, 1 µM (hERG; Mean % hERG Inhibition) [%] | inhibition at 5 min, 10 µM (hERG; Mean % hERG Inhibition, 10 μM) [%] | inhibition at 5 min, 10 µM (hERG; [3]) [%] | Mean % hERG Inhibition (hERG current; 0.01 μM) [%] | Mean % hERG Inhibition (hERG current; 0.1 μM) [%] | Mean % hERG Inhibition (hERG current; 1 μM) [%] | Mean % hERG Inhibition (hERG current; 10 μM) [%] | hERG current inhibition at the highest concentration tested (hERG current) | further results
8 | O=C(O)C(=O)N1CCSc2ccccc2C1 [S77] | 60 | – | – | – | – | – | – | – | – | – | 1.3 | 7.5 | 3.6 | 4.1 | less than 50% | Individual Data (% Inhibition) (hERG current; 0.01 μM, listed as ARM077, 0.01 µM): 1.4% and 1.1%; Individual Data (% Inhibition) (hERG current; 0.1 μM, listed as ARM077, 0.1 µM): 11.4% and 3.6%; Individual Data (% Inhibition) (hERG current; 1 μM, listed as ARM077, 1 µM): 3.1% and 4.0%; Individual Data (% Inhibition) (hERG current; 10 μM, listed as ARM077, 10 µM): 0.9% and 7.2%
9 | O=C(N1CCCCC1)N1CCSc2ccccc2C1 [S102] | 135 | – | – | – | – | – | – | – | – | – | 2.5 | 4.2 | 5.7 | 47.3 | less than 50% | Individual Data (% Inhibition) (hERG current; 0.01 μM, listed as ARM102, 0.01 µM): 0.5% and 4.4%; Individual Data (% Inhibition) (hERG current; 0.1 μM, listed as ARM102, 0.1 µM): 1.8% and 6.5%; Individual Data (% Inhibition) (hERG current; 1 μM, listed as ARM102, 1 µM): 0.8% and 10.5%; Individual Data (% Inhibition) (hERG current; 10 μM, listed as ARM102, 10 µM): 46.2% and 48.3%
10 | COc1ccc2c(c1)CN(C(=O)C(=O)O)CCS2(=O)=O [S104] | 111 | – | – | – | – | – | – | – | – | – | 1.6 | 2.5 | 4.6 | 7.4 | less than 50% | Individual Data (% Inhibition) (hERG current; 0.01 μM, listed as ARM104, 0.01 µM): 1.2% and 1.9%; Individual Data (% Inhibition) (hERG current; 0.1 μM, listed as ARM104, 0.1 µM): 1.1% and 3.9%; Individual Data (% Inhibition) (hERG current; 1 μM, listed as ARM104, 1 µM): 3.1% and 6.0%; Individual Data (% Inhibition) (hERG current; 10 μM, listed as ARM104, 10 µM): 8.3% and 6.5%
